In patent publication US7378413B2, “2-amino-3-(alkyl)-pyrimidone derivatives” (Sanofi Aventis, priority 2000, dated 2008) one finds melting point data, which are given here for 41 compounds.

Where a name gives a salt, the structure may show the parent alone.

For the compound `CCCCCCCCNc1nc(-c2ccncc2)cc(=O)n1C`, the melting point (as a rule, the temperature, or range, at which the solid turns liquid) was in the range of 114 to 116 °C.

The compound `Cn1c(NCc2cccc(CN)c2)nc(-c2ccncc2)cc1=O` (as salt: hydrochloride) showed a melting point of 193 to 197 °C.

Compound `NCCCCCCNc1nc(-c2ccncc2)cc(=O)n1CCCc1ccccc1` (as salt: hydrochloride) gave a melting point of 142 to 143 °C.

With `NCCCCCCNc1nc(-c2ccncc2)cc(=O)n1CCc1ccccc1` (as salt: hydrochloride), the melting point fell in the range of 225 to 228 °C.

Take `NCCCCCCn1c(NCCCc2ccccc2)nc(-c2ccncc2)cc1=O` (as salt: hydrochloride): the melting point is 192 to 195 °C.

Turning to `NCCCCCCn1c(NCCc2ccccc2)nc(-c2ccncc2)cc1=O` (as salt: hydrochloride), the melting point lay in the range of 125 to 127 °C.

Compound `CN(C)CCn1c(NCCCc2ccccc2)nc(-c2ccncc2)cc1=O` (as salt: hydrochloride) gave a melting point of 212 to 215 °C.

On to `NCCCCCCNc1nc(-c2ccncc2)cc(=O)n1Cc1ccccc1` (as salt: hydrochloride), for which the melting point fell in the range of 292 to 298 °C.

`Cn1c(NCc2cccc(OCCCN)c2)nc(-c2ccncc2)cc1=O` (as salt: hydrochloride) [Compound 26, 2-[[[3-(3-aminopropoxy)phenyl]methyl]amino]-3-methyl-6-pyridin-4-ylpyrimidin-4(3H)-one] returned a melting point of 193 to 196 °C.

Regarding `Cn1c(NCCCCCN)nc(-c2ccncc2)cc1=O` (as salt: hydrochloride) [Compound 40, 2-(5-Amino-pentylamino)-3-methyl-6-pyridin-4-yl-3H-pyrimidin-4-one], the melting point lay within 259 to 262 °C.

`NCCCCNc1nc(-c2ccncc2)cc(=O)n1CCCc1ccccc1` (as salt: hydrochloride) [Compound 41, 2-(4-Amino-butylamino)-3-(3-phenyl-propyl)-6-pyridin-4-yl-3H-pyrimidin-4-one] gave a melting point of 134 to 136 °C.

Compound `NCCCCCNc1nc(-c2ccncc2)cc(=O)n1CCc1ccccc1` (as salt: hydrochloride) [Compound 43, 2-(5-Amino-pentylamino)-3-phenethyl-6-pyridin-4-yl-3H-pyrimidin-4-one] gave a melting point of 235 to 238 °C.

Compound `NCCCCNc1nc(-c2ccncc2)cc(=O)n1CCc1ccccc1` (as salt: hydrochloride) [Compound 45, 2-(4-Amino-butylamino)-3-phenethyl-6-pyridin-4-yl-3H-pyrimidin-4-one] displayed a melting point of 246 to 248 °C.

Regarding `CCCCCCCCCCNc1nc(-c2ccncc2)cc(=O)n1C` (as salt: hydrochloride) [Compound 53, 2-Decylamino-3-methyl-6-pyridin-4-yl-3H-pyrimidin-4-one], the melting point lay in the range of 162 to 164 °C.

As for `CN(CCCC1CCCCC1)c1nc(-c2ccncc2)cc(=O)n1C` (as salt: hydrochloride) [Compound 68, 2-[(3-Cyclohexyl-propyl)-methyl-amino]-3-methyl-6-pyridin-4-yl-3H-pyrimidin-4-one], the melting point is 188 to 191 °C.

Consider `Cn1c(NCc2cccc(OCCC3CCNCC3)c2)nc(-c2ccncc2)cc1=O` (as salt: hydrochloride) [Compound 72, 3-methyl-2-[3-(2-piperidin-4-yl-ethoxy)-benzylamino]-6-pyridin-4-yl-3H-pyrimidin-4-one], for which the melting point is 225 to 232 °C.

Take `CNCc1ccc(CCN(C)c2nc(-c3ccncc3)cc(=O)n2C)cc1` (as salt: hydrochloride) [Compound 75, 3-Methyl-2-{methyl-[2-(4-methylaminomethyl-phenyl)-ethyl]-amino}-6-pyridin-4-yl-3H-pyrimidin-4-one]: the melting point is 157 to 160 °C.

With `Cn1c(N(CCCN)CCCc2ccccc2)nc(-c2ccncc2)cc1=O` (as salt: hydrochloride) [Compound 77, 2-[(3-Amino-propyl)-(3-phenyl-propyl)-amino]-3-methyl-6-pyridin-4-yl-3H-pyrimidin-4-one], the melting point was 185 to 189 °C.

`NCCCCCn1c(NCCCc2ccccc2)nc(-c2ccncc2)cc1=O` (as salt: hydrochloride) [Compound 79, 3-(5-Amino-pentyl)-2-(3-phenyl-propylamino)-6-pyridin-4-yl-3H-pyrimidin-4-one] displayed a melting point of 123 to 126 °C.

Compound `NCCCCn1c(NCCCc2ccccc2)nc(-c2ccncc2)cc1=O` (as salt: hydrochloride) [Compound 80, 3-(4-Amino-butyl)-2-(3-phenyl-propylamino)-6-pyridin-4-yl-3H-pyrimidin-4-one] registered a melting point of 124 to 127 °C.

`Cn1c(NCc2cccc(OCCCc3ccncc3)c2)nc(-c2ccncc2)cc1=O` (as salt: hydrochloride) [Compound 81, 3-Methyl-6-pyridin-4-yl-2-[3-(3-pyridin-4-yl-propoxy)-benzylamino]-3H-pyrimidin-4-one]: the melting point lay in the range of 210 to 213 °C.

For `NCCn1c(NCCCc2ccccc2)nc(-c2ccncc2)cc1=O` (as salt: hydrochloride) [Compound 84, 3-(2-Amino-ethyl)-2-(3-phenyl-propylamino)-6-pyridin-4-yl-3H-pyrimidin-4-one], the melting point is 145 to 148 °C.

Turning to `COc1ccccc1CCNc1nc(-c2ccncc2)cc(=O)n1CCCN` (as salt: hydrochloride) [Compound 85, 3-(3-Amino-propyl)-2-[2-(2-methoxy-phenyl)-ethylamino]-6-pyridin-4-yl-3H-pyrimidin-4-one], the melting point lay in the range of 198 to 201 °C.

`NCCCCCn1c(NCCc2ccccc2)nc(-c2ccncc2)cc1=O` (as salt: hydrochloride) [Compound 88, 3-(5-Amino-pentyl)-2-phenethylamino-6-pyridin-4-yl-3H-pyrimidin-4-one] had a melting point of 178 to 180 °C.

`NCCCCn1c(NCCc2ccccc2)nc(-c2ccncc2)cc1=O` (as salt: hydrochloride) [Compound 89, 3-(4-Amino-butyl)-2-phenethylamino-6-pyridin-4-yl-3H-pyrimidin-4-one] came in with a melting point of 170 to 175 °C.

Turning to `NCCCCNc1nc(-c2ccncc2)cc(=O)n1Cc1ccccc1` (as salt: hydrochloride) [Compound 90, 2-(4-Amino-butylamino)-3-benzyl-6-pyridin-4-yl-3H-pyrimidin-4-one], the melting point was 163 to 168 °C (dec.).

Compound `Cn1c(NCC=Cc2ccccc2)nc(-c2ccncc2)cc1=O` (as salt: hydrochloride) [Compound 95, 3-Methyl-2-(3-phenyl-allylamino)-6-pyridin-4-yl-3 H-pyrimidin-4-one] displayed a melting point of 198 to 200 °C.

`Cn1c(NCCCc2ccccc2)nc(-c2ccncc2)cc1=O` (as salt: hydrochloride) [Compound 96, 3-Methyl-2-(3-phenyl-propylamino)-6-pyridin-4-yl-3H-pyrimidin-4-one] displayed a melting point of 187 to 189 °C.

As for `Cn1c(NCCc2c[nH]c3ccccc23)nc(-c2ccncc2)cc1=O` (as salt: oxalate) [Compound 29, 2-[[2-(1H-indol-3-yl)ethyl]amino]-3-methyl-6-pyridin-4-ylpyrimidin-4(3H)-one], the melting point lay within 217 to 218 °C.

`CCNc1nc(-c2ccncc2)cc(=O)n1C` (as salt: oxalate) [Compound 36, 2-(ethylamino)-3-methyl-6-pyridin-4-ylpyrimidin-4(3H)-one] had a melting point of 239 to 241 °C.

In turn, `Cn1c(N2CCCCC2)nc(-c2ccncc2)cc1=O` (as salt: tartrate) [Compound 38, 2-(piperidin-1-yl)-3-methyl-6-pyridin-4-ylpyrimidin-4(3H)-one] yielded a melting point of 228 to 230 °C.

In turn, `COc1ccccc1CCNc1nc(-c2ccncc2)cc(=O)n1C` [Compound 4, 2-[[2-(2-methoxyphenyl)ethyl]amino]-3-methyl-6-pyridin-4-ylpyrimidin-4(3H)-one] yielded a melting point of 149.2 to 149.5 °C.

Take `Cn1c(NCCc2ccccc2F)nc(-c2ccncc2)cc1=O` [Compound 5, 2-[[2-(2-fluorophenyl)ethyl]amino]-3-methyl-6-pyridin-4-ylpyrimidin-4(3H)-one]: the melting point was 184 to 187.2 °C.

Consider `Cn1c(NCCc2cccc(F)c2)nc(-c2ccncc2)cc1=O` [Compound 6, 2-[[2-(3-fluorophenyl)ethyl]amino]-3-methyl-6-pyridin-4-ylpyrimidin-4(3H)-one], for which the melting point is 158.9 to 159.2 °C.

`Cn1c(NCCc2ccc(F)cc2)nc(-c2ccncc2)cc1=O` [Compound 7, 2-[[2-(4-fluorophenyl)ethyl]amino]-3-methyl-6-pyridin-4-ylpyrimidin-4(3H)-one] came in with a melting point of 178.8 to 178.9 °C.

The compound `Cn1c(NCCc2ccccc2Cl)nc(-c2ccncc2)cc1=O` [Compound 9, 2-[[2-(2-chlorophenyl)ethyl]amino]-3-methyl-6-pyridin-4-ylpyrimidin-4(3H)-one] returned a melting point of 175.2 to 175.4 °C.

In the case of `Cn1c(NCCc2ccc(N)cc2)nc(-c2ccncc2)cc1=O` [Compound 11, 2-[[2-(4-aminophenyl)ethyl]amino]-3-methyl-6-pyridin-4-ylpyrimidin-4(3H)-one], the melting point was 197.3 to 197.5 °C.

In turn, `COc1ccc(CCNc2nc(-c3ccncc3)cc(=O)n2C)cc1OC` [Compound 12, 2-[[2-(3,4-dimethoxyphenyl)ethyl]amino]-3-methyl-6-pyridin-4-ylpyrimidin-4(3H)-one] returned a melting point of 187 to 187.1 °C.

`COc1ccc(OC)c(CCNc2nc(-c3ccncc3)cc(=O)n2C)c1` [Compound 13, 2-[[2-(2,5-dimethoxyphenyl)ethyl]amino]-3-methyl-6-pyridin-4-ylpyrimidin-4(3H)-one] registered a melting point of 180.9 to 181.3 °C.

Compound `Cn1c(NCCc2ccc(Cl)cc2)nc(-c2ccncc2)cc1=O` [Compound 14, 2-[[2-(4-chlorophenyl)ethyl]amino]-3-methyl-6-pyridin-4-ylpyrimidin-4(3H)-one] registered a melting point of 165.3 to 165.5 °C.

The compound `Cn1c(NCCc2ccc(O)cc2)nc(-c2ccncc2)cc1=O` [Compound 15, 2-[[2-(4-hydroxyphenyl)ethyl]amino]-3-methyl-6-pyridin-4-ylpyrimidin-4(3H)-one] registered a melting point of 257.4 to 257.9 °C.
